Results from paper PMC6162791, “Phoneutria nigriventer Spider Toxin PnTx2-1 (δ-Ctenitoxin-Pn1a) Is a Modulator of Sodium Channel Gating” (Toxins, 2018).
Bridge positions count the residues as written; N and C are the ends. Ends that are not written are not given here.

Experiments:
[1] = target: T1, NaV1.5 (Homo sapiens, UniProt Q14524); format: cell-based, mammalian
[2] = target: T2, NaV1.1 (Homo sapiens, UniProt P35498); experiment: Two-electrode voltage clamp in Xenopus oocytes, NaV1.1 modulation / concentration-response; format: cell-based, mammalian; conditions: NaV1.1, 1 µM
[3] = tested on: NaV1.2; experiment: Two-electrode voltage clamp in Xenopus oocytes, NaV1.2 modulation; format: cell-based, mammalian
[4] = tested on: NaV1.3; experiment: Two-electrode voltage clamp in Xenopus oocytes, NaV1.3 modulation; format: cell-based, mammalian
[5] = tested on: NaV1.4; experiment: Two-electrode voltage clamp in Xenopus oocytes, NaV1.4 modulation; format: cell-based, mammalian
[6] = target: T1, NaV1.5; experiment: Two-electrode voltage clamp in Xenopus oocytes, NaV1.5 modulation / concentration-response; format: cell-based, mammalian; conditions: NaV1.5, 1 µM
[7] = tested on: NaV1.6; experiment: Two-electrode voltage clamp in Xenopus oocytes, NaV1.6 modulation; format: cell-based, mammalian
[8] = target: T3, NaV1.8 (Homo sapiens, UniProt Q9Y5Y9); experiment: Two-electrode voltage clamp in Xenopus oocytes, NaV1.8 modulation / concentration-response; format: cell-based, mammalian; conditions: NaV1.8, 1 μM
[9] = tested on: BgNaV1; experiment: Two-electrode voltage clamp in Xenopus oocytes, BgNaV1 modulation / concentration-response; format: cell-based, Blattella germanica
[10] = tested on: VdNaV1; experiment: Two-electrode voltage clamp in Xenopus oocytes, VdNaV1 modulation / concentration-response; format: cell-based, Varroa destructor
[11] = target: T2, NaV1.1; experiment: Voltage dependence of activation and steady-state inactivation, NaV1.1; format: cell-based, mammalian; conditions: NaV1.1, 1 µM
[12] = target: T1, NaV1.5; experiment: Current-voltage relationship, activation and steady-state inactivation, NaV1.5; format: cell-based, mammalian
[13] = target: T3, NaV1.8; experiment: Voltage dependence of activation and steady-state inactivation, NaV1.8; format: cell-based, mammalian
[14] = tested on: BgNaV1; experiment: Voltage dependence of activation and steady-state inactivation, BgNaV1; format: cell-based, Blattella germanica
[15] = target: T1, NaV1.5; experiment: Recovery from inactivation, NaV1.5; format: cell-based, mammalian; conditions: NaV1.5, 1 µM
[16] = tested on: BgNaV1; experiment: Recovery from fast inactivation, BgNaV1; format: cell-based, Blattella germanica; conditions: BgNaV1, 1 µM
[17] = tested on: BgNaV1; experiment: State-dependence (toxin incubation without depolarizing pulses), BgNaV1; format: cell-based, Blattella germanica; conditions: BgNaV1, 1 µM
[18] = tested on: NaV channels; experiment: NaV channel panel in Xenopus oocytes (ion selectivity, species selectivity); format: cell-based; conditions: presence of toxin, ion selectivity not altered
[19] = tested on: mice; conditions: cited from earlier work
Description: Spiders can be considered one of the most successful venomous animals ever to inhabit the planet with over 47,000 species characterized to date. Despite this diversity, no more than 100 spider species have had their venom investigated. With over ten million estimated biologically active peptides in spider venoms, this means that less than 0.01% of spider peptides have been studied, making spider venom an untapped treasure of biologically active compounds with promising discoveries in drug and bioinsecticide development. Phoneutria nigriventer are very ...

[20] = tested on: PnTx2-6 binding site; conditions: ref [14]; cited from earlier work
Description: PnTx2-1 shares the highest sequence identity with PnTx2-5 and PnTx2-6, which are also isolated from the Phoneutria nigriventer venom fraction 2 [13]. PnTx2-5 and PnTx2-6 are the best-characterized toxins from the PhTx2 venom fraction. These two toxins share 90% sequence identity, with only five amino acid residues different (Figure 1). […] Both peptides modulate sodium chann ...

T3 sequence (Q9Y5Y9 whole entry): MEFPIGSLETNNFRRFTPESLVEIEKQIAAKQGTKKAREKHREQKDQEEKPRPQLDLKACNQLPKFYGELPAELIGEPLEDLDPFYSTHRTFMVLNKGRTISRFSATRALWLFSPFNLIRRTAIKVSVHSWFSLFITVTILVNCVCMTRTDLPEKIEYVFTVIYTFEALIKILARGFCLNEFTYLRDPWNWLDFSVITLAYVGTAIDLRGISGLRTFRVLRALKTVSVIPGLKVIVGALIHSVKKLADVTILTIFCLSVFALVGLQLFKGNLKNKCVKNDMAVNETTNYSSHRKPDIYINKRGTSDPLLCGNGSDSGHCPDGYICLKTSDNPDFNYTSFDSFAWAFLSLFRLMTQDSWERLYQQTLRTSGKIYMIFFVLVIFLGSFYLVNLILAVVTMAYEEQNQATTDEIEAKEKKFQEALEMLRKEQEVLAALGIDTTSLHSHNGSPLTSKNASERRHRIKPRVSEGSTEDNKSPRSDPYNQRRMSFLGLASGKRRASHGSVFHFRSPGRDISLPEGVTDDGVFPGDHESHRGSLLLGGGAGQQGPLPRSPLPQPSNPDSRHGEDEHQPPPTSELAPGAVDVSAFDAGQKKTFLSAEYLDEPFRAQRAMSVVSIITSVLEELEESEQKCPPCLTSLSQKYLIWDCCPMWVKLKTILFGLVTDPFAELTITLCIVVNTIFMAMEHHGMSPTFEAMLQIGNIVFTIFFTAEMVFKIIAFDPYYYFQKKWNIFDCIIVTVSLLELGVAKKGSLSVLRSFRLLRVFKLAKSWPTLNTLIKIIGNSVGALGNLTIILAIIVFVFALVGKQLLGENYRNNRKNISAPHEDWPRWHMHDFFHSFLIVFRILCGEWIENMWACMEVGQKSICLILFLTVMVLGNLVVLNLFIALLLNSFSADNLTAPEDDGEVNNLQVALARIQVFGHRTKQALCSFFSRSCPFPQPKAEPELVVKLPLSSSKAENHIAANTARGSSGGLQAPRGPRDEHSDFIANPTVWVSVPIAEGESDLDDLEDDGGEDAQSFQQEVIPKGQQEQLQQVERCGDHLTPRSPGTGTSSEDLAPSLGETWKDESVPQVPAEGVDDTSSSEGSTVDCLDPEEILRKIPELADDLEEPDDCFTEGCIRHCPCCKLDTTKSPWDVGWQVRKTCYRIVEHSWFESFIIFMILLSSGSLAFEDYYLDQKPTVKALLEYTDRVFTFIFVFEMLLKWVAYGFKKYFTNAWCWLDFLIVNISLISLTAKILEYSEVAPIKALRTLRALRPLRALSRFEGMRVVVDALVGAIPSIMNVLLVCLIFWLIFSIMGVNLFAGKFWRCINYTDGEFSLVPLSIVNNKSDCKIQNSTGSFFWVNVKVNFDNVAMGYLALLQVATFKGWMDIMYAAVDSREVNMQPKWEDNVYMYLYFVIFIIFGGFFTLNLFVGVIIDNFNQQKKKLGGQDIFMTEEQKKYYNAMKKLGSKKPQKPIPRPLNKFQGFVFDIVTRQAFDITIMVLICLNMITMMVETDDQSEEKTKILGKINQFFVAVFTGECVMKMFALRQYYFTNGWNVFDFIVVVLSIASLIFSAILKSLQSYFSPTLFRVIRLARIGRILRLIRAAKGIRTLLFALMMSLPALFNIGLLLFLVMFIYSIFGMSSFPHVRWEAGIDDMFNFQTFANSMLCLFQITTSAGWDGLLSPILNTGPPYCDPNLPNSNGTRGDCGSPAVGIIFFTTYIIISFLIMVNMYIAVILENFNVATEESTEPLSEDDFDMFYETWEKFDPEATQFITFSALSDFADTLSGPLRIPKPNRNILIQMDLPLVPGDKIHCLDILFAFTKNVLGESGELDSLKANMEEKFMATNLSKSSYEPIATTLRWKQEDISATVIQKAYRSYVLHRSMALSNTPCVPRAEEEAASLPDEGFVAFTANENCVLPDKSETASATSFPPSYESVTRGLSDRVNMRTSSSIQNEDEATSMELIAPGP
T1 sequence (Q14524 whole entry, looked up): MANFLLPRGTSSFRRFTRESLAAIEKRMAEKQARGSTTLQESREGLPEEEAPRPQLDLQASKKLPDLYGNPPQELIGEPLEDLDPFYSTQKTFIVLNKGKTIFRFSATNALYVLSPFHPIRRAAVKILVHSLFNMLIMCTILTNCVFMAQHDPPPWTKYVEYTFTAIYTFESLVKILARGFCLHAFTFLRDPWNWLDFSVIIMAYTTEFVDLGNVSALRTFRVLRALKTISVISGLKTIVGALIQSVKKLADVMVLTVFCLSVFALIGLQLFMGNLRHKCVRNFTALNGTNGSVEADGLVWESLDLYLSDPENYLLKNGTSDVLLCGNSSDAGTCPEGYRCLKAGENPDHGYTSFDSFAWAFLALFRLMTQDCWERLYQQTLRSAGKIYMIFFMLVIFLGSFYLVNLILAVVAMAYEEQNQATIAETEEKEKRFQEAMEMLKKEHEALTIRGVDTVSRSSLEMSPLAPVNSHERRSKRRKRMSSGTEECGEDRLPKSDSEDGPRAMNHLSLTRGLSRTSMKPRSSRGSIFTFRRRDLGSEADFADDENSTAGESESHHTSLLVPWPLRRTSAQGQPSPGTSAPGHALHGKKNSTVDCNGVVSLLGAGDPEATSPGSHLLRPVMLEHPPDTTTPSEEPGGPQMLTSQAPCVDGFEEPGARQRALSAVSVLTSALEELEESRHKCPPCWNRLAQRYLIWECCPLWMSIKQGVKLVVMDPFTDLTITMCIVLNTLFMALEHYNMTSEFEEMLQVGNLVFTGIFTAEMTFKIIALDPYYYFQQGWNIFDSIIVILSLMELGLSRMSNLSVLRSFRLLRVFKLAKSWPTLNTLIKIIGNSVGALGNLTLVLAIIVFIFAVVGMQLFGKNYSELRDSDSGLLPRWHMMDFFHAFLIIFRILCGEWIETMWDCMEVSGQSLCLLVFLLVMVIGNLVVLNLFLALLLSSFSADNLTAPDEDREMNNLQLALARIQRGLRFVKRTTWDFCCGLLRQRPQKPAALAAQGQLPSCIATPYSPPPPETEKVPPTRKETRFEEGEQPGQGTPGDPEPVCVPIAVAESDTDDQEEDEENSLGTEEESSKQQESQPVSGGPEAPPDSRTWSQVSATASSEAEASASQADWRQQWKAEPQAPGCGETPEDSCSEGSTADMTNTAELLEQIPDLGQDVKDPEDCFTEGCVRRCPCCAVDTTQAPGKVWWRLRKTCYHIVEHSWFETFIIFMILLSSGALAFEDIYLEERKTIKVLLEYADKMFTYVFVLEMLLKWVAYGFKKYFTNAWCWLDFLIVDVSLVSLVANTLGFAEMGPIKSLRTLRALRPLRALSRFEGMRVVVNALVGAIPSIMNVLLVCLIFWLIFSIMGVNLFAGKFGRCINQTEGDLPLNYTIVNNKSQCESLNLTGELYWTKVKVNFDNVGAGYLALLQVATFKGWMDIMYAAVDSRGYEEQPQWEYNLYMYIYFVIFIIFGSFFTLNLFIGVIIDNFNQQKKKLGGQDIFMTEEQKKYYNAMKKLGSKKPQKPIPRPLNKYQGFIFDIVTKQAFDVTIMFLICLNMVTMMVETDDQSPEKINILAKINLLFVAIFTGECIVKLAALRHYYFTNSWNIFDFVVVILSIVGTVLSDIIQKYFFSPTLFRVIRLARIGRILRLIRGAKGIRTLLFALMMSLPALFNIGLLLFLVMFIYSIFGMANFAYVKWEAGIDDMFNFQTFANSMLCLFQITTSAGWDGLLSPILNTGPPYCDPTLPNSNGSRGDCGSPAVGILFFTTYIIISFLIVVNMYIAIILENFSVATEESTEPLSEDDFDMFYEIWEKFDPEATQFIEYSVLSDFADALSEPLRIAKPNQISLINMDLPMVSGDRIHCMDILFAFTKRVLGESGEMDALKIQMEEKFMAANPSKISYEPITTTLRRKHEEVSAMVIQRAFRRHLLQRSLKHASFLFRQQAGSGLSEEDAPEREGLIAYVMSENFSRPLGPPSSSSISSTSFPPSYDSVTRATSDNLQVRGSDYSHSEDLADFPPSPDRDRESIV

Compound: NC1=N[C@H](O)[C@H]2[C@H]3O[C@]4(O)O[C@@H]([C@@H](O)[C@@]2(N1)[C@@H]4O)[C@]3(O)CO [tetrodotoxin (TTX), tetrodotoxin, reference compound]
- decrease of the sodium current peak amplitude [1]: 50%

Compound: ATCAGQDKPCKETCDCCGERGECVCALSYEGKYRCICRQGNFLIAWHKLASCK (disulfide 3-17, 10-23, 14-52, 16-37, 25-35) [PnTx2-1]
- effect on inactivation [2]: slowed the inactivation
- effect on channel ([3]; NaV1.2, 1 μM): not affected
- activity on channel ([3]; NaV1.2, up to 5 µM, data not shown): no activity
- effect on channel ([4]; NaV1.3, 1 μM): not affected
- activity on channel ([4]; NaV1.3, up to 5 µM, data not shown): no activity
- effect on channel ([5]; NaV1.4, 1 μM): not affected
- activity on channel ([5]; NaV1.4, up to 5 µM, data not shown): no activity
- effect on inactivation [6]: slowed the inactivation
- effect on channel ([7]; NaV1.6, 1 μM): not affected
- activity on channel ([7]; NaV1.6, up to 5 µM, data not shown): no activity
- effect on inactivation [8]: slowed the inactivation
- effect on inactivation ([9]; BgNaV1, 1 µM): completely inhibited inactivation of BgNaV1 channels, resulting in sustained non-inactivating currents
- EC50 ([9]; BgNaV1, modulation (current at 30 ms / control peak), Hill fit, Xenopus oocytes, ND96 pH 7.5, 18–22 °C, holding −90 mV, mean ± SEM, n ≥ 3): 91.9 ± 17 nM
- effect on inactivation ([10]; VdNaV1, 1 μM): profound effect on the inactivation
- EC50 ([10]; VdNaV1, modulation (current at 30 ms / control peak), Hill fit, Xenopus oocytes, ND96 pH 7.5, 18–22 °C, holding −90 mV, mean ± SEM, n ≥ 3): 102 ± 14.7 nM
- shift of midpoint of activation [11]: the midpoint of activation shifted towards more depolarized potentials
- shift of steady-state inactivation curve [11]: the steady-state inactivation curves shifted towards more hyperpolarized membrane potentials
- window of open probability [11]: increased window of open probability
- shift of midpoint of activation ([12]; NaV1.5, 1 µM): the midpoint of activation shifted towards more depolarized potentials
- shift of steady-state inactivation curve ([12]; NaV1.5, 1 µM): the steady-state inactivation curves shifted towards more hyperpolarized membrane potentials
- window of open probability ([12]; NaV1.5, 1 µM): increased window of open probability
- V1/2 of activation ([12]; NaV1.5, 1 µM toxin, control −53.1 ± 0.1, mean ± SEM, n ≥ 3): −45.3 ± 0.1 mV
- V1/2 of steady-state inactivation ([12]; NaV1.5, 1 µM toxin, control −78.4 ± 0.2, mean ± SEM, n ≥ 3): −87.5 ± 0.7 mV
- effect on sodium peak current ([12]; NaV1.5, Figure 2E, Figure 3B and Figure 5A): inhibition of the sodium peak current
- modulation of gating kinetics ([13]; NaV1.8, 1 μM): No relevant modulation of the gating kinetics
- V1/2 of activation ([13]; NaV1.8, 1 µM toxin, control −11.5 ± 0.1, mean ± SEM, n ≥ 3): −11.4 ± 0.1 mV
- completeness of steady-state inactivation ([14]; BgNaV1, 1 µM): steady-state inactivation became incomplete after toxin addition
- shift of activation midpoint and steady-state inactivation ([14]; BgNaV1, 1 µM): A shift in the midpoint of activation and in the voltage dependence of steady-state inactivation
- V1/2 of activation ([14]; BgNaV1, 1 µM toxin, control −38.1 ± 0.1, mean ± SEM, n ≥ 3): −45.8 ± 0.3 mV
- non-inactivating current component of steady-state inactivation ([14]; BgNaV1, 1 µM, mean ± SEM, n ≥ 3): 62.3 ± 3.2%
- recovery from inactivation [15]: strongly enhanced the recovery from inactivation
- recovery from inactivation, τ ([15]; control τ = 50.2 ± 3.0 ms, mean ± SEM, n ≥ 3): 22.8 ± 3.2 ms
- recovery from fast inactivation [16]: does not influence the recovery from fast inactivation
- binding at neurotoxin site 1 [1]: does not bind at site 1
- effect on peak amplitude after TTX [1]: additional reduction of the peak amplitude
- slowing of inactivation after closed-state incubation ([17]; 2 min at −90 mV without depolarizing pulses, then pulse to 0 mV): significant slowing down of inactivation
- toxin interaction state ([17]; closed state): toxin interaction with the channel in the closed state
- reversal potential [18]: No significant change in the reversal potential
- signs after injection ([19]; injected, ref [12]): pruritus, lacrimation, increased salivation, sweating and agitation followed by spastic paralysis of the limbs
- toxicity after intracerebral injection ([19]; intracerebral (i.c.), among the nine PhTx2 peptides, ref [13]): higher toxicity

Compound: CssIV: β-scorpion toxin CssIV (from Centruroides suffusus suffusus)
- competition with PnTx2-6 [20]: does not compete with PnTx2-6
